According to US4399274A, “Isolation of non-ionic lipophilic materials on macroreticular polymeric absorbents” (priority 1981, dated 1983):

Experiment: Partition of avermectins between aqueous acetone and Duolite ES-863 resin (HPLC of supernatant before and after equilibration)
[1] = 21.4% acetone (vol), 4 ml supernatant, 1 g ES-863 resin, equilibrated for an hour
[2] = 23.1% acetone (vol), 4 ml supernatant, 1 g ES-863 resin, equilibrated for an hour
[3] = 25.0% acetone (vol), 4 ml supernatant, 1 g ES-863 resin, equilibrated for an hour
[4] = 27.3% acetone (vol), 4 ml supernatant, 1 g ES-863 resin, equilibrated for an hour
[5] = 37.5% acetone (vol), 4 ml supernatant, 1 g ES-863 resin, equilibrated for an hour
[6] = 42.9% acetone (vol), 4 ml supernatant, 1 g ES-863 resin, equilibrated for an hour
[7] = 50.0% acetone (vol), 4 ml supernatant, 1 g ES-863 resin, equilibrated for an hour
[8] = 60.0% acetone (vol), 4 ml supernatant, 1 g ES-863 resin, equilibrated for an hour
[9] = 82.2% acetone, ES-863 resin, similar procedures
[10] = 68.0% acetone, ES-863 resin, similar procedures
[11] = 73.3% acetone, ES-863 resin, similar procedures
[12] = 77.1% acetone, ES-863 resin, similar procedures
[13] = 80.0% acetone, ES-863 resin, similar procedures

Method: After standing overnight they were centrifuged and 4 ml of each supernatant was transferred to tubes containing 1 g each of purified ES-863 resin. An aliquot was also taken for HPLC assay.
The samples containing the resin were equilibrated for an hour, then centrifuged. The supernatants were assayed by HPLC. A comparison of the assays before and after equilibration represent the partition between the solvent and the adsorbent.

SMILES | % Remaining in Solution [1] [%] | % Remaining in Solution [2] [%] | % Remaining in Solution [3] [%] | % Remaining in Solution [4] [%] | % Remaining in Solution [5] [%] | % Remaining in Solution [6] [%] | % Remaining in Solution [7] [%] | % Remaining in Solution [8] [%] | % Remaining in Solution [9] [%] | % Remaining in Solution [10] [%] | % Remaining in Solution [11] [%] | % Remaining in Solution [12] [%] | % Remaining in Solution [13] [%]
COC1CC(OC2C(C)OC(OC3C(C)=CCC4CC(CC5(CC(O)C(C)C(C(C)C)O5)O4)OC(=O)C4C=C(C)C(O)C5OCC(=CC=CC3C)C45O)CC2OC)OC(C)C1O (stereo not drawn) [B2b] | < 2 | 4.80 | 5.08 | 2.34 | < 3 | 3.89 | 4.35 | 33.3 | 135 | – | – | – | –
COC1CC(OC2C(C)OC(OC3C(C)=CCC4CC(CC5(CC(O)C(C)C(C(C)C)O5)O4)OC(=O)C4C=C(C)C(OC)C5OCC(=CC=CC3C)C45O)CC2OC)OC(C)C1O (stereo not drawn) [A2b] | 2.75 | 3.89 | 5.38 | 3.73 | 2.70 | 1.71 | 0.57 | 0.3 | 128 | 26.8 | 64.8 | 94.4 | 117
CCC(C)C1OC2(CC3CC(CC=C(C)C(OC4CC(OC)C(OC5CC(OC)C(O)C(C)O5)C(C)O4)C(C)C=CC=C4COC5C(O)C(C)=CC(C(=O)O3)C45O)O2)CC(O)C1C (stereo not drawn) [B2a] | 5.10 | 6.09 | 7.29 | 5.37 | 3.21 | 2.65 | 1.36 | 4.95 | 165 | 27.8 | 60.4 | 82.1 | 99.8
CCC(C)C1OC2(CC3CC(CC=C(C)C(OC4CC(OC)C(OC5CC(OC)C(O)C(C)O5)C(C)O4)C(C)C=CC=C4COC5C(OC)C(C)=CC(C(=O)O3)C45O)O2)CC(O)C1C (stereo not drawn) [A2a] | 5.36 | 6.54 | 7.86 | 6.99 | 4.19 | 3.76 | 2.12 | 2.72 | 110 | 15.2 | 42.1 | 65.7 | 86.7
COC1CC(OC2C(C)OC(OC3C(C)=CCC4CC(CC5(C=CC(C)C(C(C)C)O5)O4)OC(=O)C4C=C(C)C(O)C5OCC(=CC=CC3C)C45O)CC2OC)OC(C)C1O (stereo not drawn) [B1b] | 3.73 | 5.03 | 6.32 | 4.55 | 2.59 | 2.13 | 0.90 | 1.53 | 123 | 20.4 | 5.15 | 73.8 | 94.2
COC1CC(OC2C(C)OC(OC3C(C)=CCC4CC(CC5(C=CC(C)C(C(C)C)O5)O4)OC(=O)C4C=C(C)C(OC)C5OCC(=CC=CC3C)C45O)CC2OC)OC(C)C1O (stereo not drawn) [A1b] | 4.56 | 4.85 | 5.63 | 6.42 | 3.18 | 3.13 | 2.42 | 1.69 | 79.0 | 10.6 | 68.1 | 111 | 145
CCC(C)C1OC2(C=CC1C)CC1CC(CC=C(C)C(OC3CC(OC)C(OC4CC(OC)C(O)C(C)O4)C(C)O3)C(C)C=CC=C3COC4C(OC)C(C)=CC(C(=O)O1)C34O)O2 (stereo not drawn) [A1a] | 4.40 | 6.75 | 7.09 | 8.42 | 3.60 | 4.39 | 3.03 | 2.10 | 136 | 5.68 | 19.7 | 36.2 | 51.5
